Data set [1] concerns HBV. Nature of the data set: Antiviral efficacy in AML12HBV10 cells, HBV DNA by dot-blot hybridization. The data set is classed as cell-based, Hepatitis B virus (HBV). The following applies: Hepatitis B virus. On the procedure:
The antiviral efficacy of the compounds of the disclosure, as presented in Tables 5, 6, 7, 8 and 9, were determined in AML12HBV10 cells. AML12HBV10 is an immortalized murine hepatocyte (AML12)-derived stable cell line that supports robust HBV replication in a tetracycline inducible manner (Xu et al.). The cells were seeded into 96 well plates at a density of 2×10^4 cells per well and cultured in DMEM/F12 media with 10% fetal bovine serum in the absence of tetracycline to allow pgRNA transcription and HBV DNA replication. One day after seeding, cells were left untreated or treated with a serial dilution of testing compounds, ranging from 50 μM to 0.39 μM, for 48 hours. Cells were then lysed by adding into each well of 100 μl lysis buffer containing 10 mM Tris-HCl (pH 7.6), 1 mM EDTA, 100 mM NaCl and 1% NP-40 and incubated at 37° C. for 30 minutes. Half amount (50 μl) of cell lysate from each well was combined with equal volume of denaturing solution containing 0.5N NaOH and 1.5M NaCl. After 5 minute incubation, 100 μl of neutralization solution (IM Tris-HCl, pH 7.4, 1.5M NaCl) was added into each well. The denatured cell lysates (totally 200 μl) were applied onto Nylon membrane using 96-well dot-blot manifold (Biorad). HBV DNA in the cell lysates were determined by dot-blot hybridization with alpha-^32P-UTP-labelled riboprobe specific for HBV minus strand DNA. The antiviral efficacy of a compound of the disclosure was expressed as the concentration that reduces the amount of HBV DNA by 50% (EC50).

Data set [2] is described as follows: Cytotoxicity in HepDES19 cells, MTT assay. In kind it is cell-based. Particulars: human, Table 10, HepDES19 cells, unit inferred. On the procedure: Determination of cytotoxicity of compounds of the disclosure in human hepatoma-derived cell lines, HepDES19 cells were seeded into 96-well plates at a density of […] cells per well and cultured in DMEM/F12 media with 10% fetal bovine serum in the absence of tetracycline. One day after seeding, cells were left untreated or treated with a serial dilution of testing compounds, ranging from 50 μM to 0.39 μM, for 6 days. The cell viability was measured by a MTT assay, following procedure provided by the manufacturer (Promega). The cytotoxicity of a compound was expressed as the concentration of compound that reduces the viability of the cells by 50% (CC50).

Another data set concerns AML12HBV10 cells. Nature of the data set: Cytotoxicity in AML12HBV10 cells, MTT assay. The data set is classed as cell-based, murine. Particulars: Table 10, AML12HBV10 cells, unit inferred; read-out: AML12HBV10 CC50. On the procedure: (§1) Determination of cytotoxicity of compounds of the disclosure in AML12HBV10 cells: To determine the cytotoxicity of the compounds, AML12HBV10 cells were seeded into 96-well plates at a density of 2×10^4 cells per well and cultured in DMEM/F12 media with 10% fetal bovine serum in the absence of tetracycline to allow pgRNA transcription and HBV DNA replication. One day after seeding, cells were left untreated or treated with a serial dilution of testing compounds, ranging from 50 μM to 0.39 μM, for 48 hours. The cell viability was measured by a MTT assay, following procedure provided by the manufacturer (Promega). The cytotoxicity of a compound was expressed as the concentration of compound that reduces the viability of the cells by 50% (CC50).

A short description of data set [3]: Cytotoxicity in AML12HBV10 cells, MTT assay. Particulars: mouse; AML12HBV10 cells, 48 hours, MTT; read-out: CC50 (cellular toxicity). In kind it is cell-based, murine. Here is the method: as §1
The subject of data set [4] is HBV. Nature of the data set: Antiviral activity in HepDES19 cells, core-associated HBV DNA by Southern blot hybridization. The data set is classed as cell-based. The following applies: Hepatitis B virus, 144 h, Table 10, HepDES19 cells, 6 days, unit inferred; for EC90: HBV DNA reduced by 90%; for EC50: Southern blot. On the procedure: FIG. 2 and Table 10, in human hepatoma-derived cell lines: To further confirm the antiviral activity of the compounds of the disclosure against HBV in human hepatocyte-derived cells, HepDES19 cells, a human hepatoma cell line supporting HBV replication in a tetracycline inducible manner (Guo et al., 2007), seeded into 12-well plates at a density of 5×10^5 cells per well and cultured in DMEM/F12 media with 10% fetal bovine serum and 1 μg/ml tetracycline. Two days after seeding, the cells were mock-treated or treated with a serial dilution of compounds of the disclosure, ranging from 10 μM to 0.018 μM, for 6 days in the absence of tetracycline. Upon the completion of treatment, cells were lysed by adding into each well of the 12-well plates 0.5 ml of lysis buffer containing 10 mM Tris-HCl (pH 8.0), 1 mM EDTA, 1% NP40 and 2% sucrose and incubating at 37° C. for 10 minutes. Cell debris and nuclei were removed by centrifugation and the supernatant was mixed with 130 μl of 35% polyethylene glycol (PEG) 8000 containing 1.5 M NaCl. After 1 hour incubation in ice, viral nucleocapsids were pelleted by centrifugation at 6,000×g for 5 min at 4° C., followed by 1 hour digestion at 37° C. in 400 μl of digestion buffer containing 0.5 mg/ml pronase (Calbiochem), 0.5% SDS, 150 mM NaCl, 25 mM Tris-HCl (pH 8.0) and 10 mM EDTA. The digestion mixture was extracted twice with phenol and DNA was precipitated with ethanol, dissolved in TE buffer (10 mM Tris-HCl, pH 8.0; 0.1 mM EDTA). One half of the DNA sample from each well was resolved by electrophoresis into a 1.5% agarose gel. The gel was then subjected to denaturation in a solution containing 0.5 M NaOH and 1.5 M NaCl, followed by neutralization in a buffer containing 1 M Tris-HCl (pH7.4) and 1.5 M NaCl. DNA was then blotted onto Hybond-XL membrane (GE Health care) in 20×SSC buffer. The amounts of cytoplasmic HBV core-associated HBV DNA were determined by Southern blot hybridization and the antiviral efficacy of a compound was expressed as its concentration that reduce the amount of HBV DNA by 50% (EC50) or 90% (EC90).

The mark [5] stands for this setting: AML12HBV10 cells, 48 hours, concentration reducing HBV DNA by 50%, read-out: EC50 (antiviral activity by dot blot hybridization).
The mark [6] stands for this setting: Table 10, AML12HBV10 cells, unit inferred, read-out: AML12HBV10 EC50.

A value given as a limit tells only on which side of the number the result lay.

The term EC50 denotes the concentration needed to bring the measured effect to its halfway point. In general, CC50 refers to the concentration at which the toxic effect on the cells reaches its halfway point. Usually EC90 stands for the concentration needed for an effect of 90%. Low readings indicate greater potency, high ones weaker potency.

As for `CCC(C)NS(=O)(=O)c1ccc(F)c(C(=O)Nc2ccc(F)c(F)c2)c1` (centres unmarked) [DVR-23, 5-sec-butylsulfamoyl-N-(3,4-difluoro-phenyl)-2-fluoro-benzamide], the EC50 is 390 nM in the data set with HBV [1] (setting [5]), 390 nM in the data set on HBV [1] (setting [6]) and 280 nM in the data set on HBV [4]. The same compound registered a CC50 at 6 days in data set [2] above 50000 nM. Besides, the CC50 in the data set with AML12HBV10 cells is above 50000 nM. The CC50 at 48 h in data set [3] is above 50000 nM. The compound also had an EC90 in the data set with HBV [4] of 860 nM.

Take `O=C(Nc1ccc(F)c(F)c1)c1cc(S(=O)(=O)NC2CCCC2)ccc1F` [DVR-56, 5-cyclopentylsulfamoyl-N-(3,4-difluoro-phenyl)-2-fluoro-benzamide]: the EC50 in the data set on HBV [1] (setting [5]) was determined as 390 nM; in the data set with HBV [1] (setting [6]), 390 nM; in the data set with HBV [4], 420 nM. For the same compound, the CC50 at 6 days in data set [2] was above 50000 nM. Moreover, the half-maximal cytotoxic concentration (CC50) with AML12HBV10 cells is above 50000 nM. Also, the CC50 at 48 h in data set [3] is above 50000 nM. Also, the EC90 with HBV [4] worked out at 1850 nM.

Source of the values: patent publication US9758477B2, “Sulfamoylbenzamide derivatives as antiviral agents against HBV infection” (priority 2011, dated 2017).
